The record followed here is patent US12679848B2, “Plasma kallikrein inhibitors” (Merck Sharp & Dohme LLC, priority 2020, dated 2026).

Experiment [1] addresses T1, Human plasma kallikrein (Homo sapiens, UniProt P03952).
T1 construct: yields a heavy chain (371 amino acids) and a light chain (248 amino acids); The active site of plasma kallikrein is contained in the light chain; purchased Enzyme Research Laboratories
Description: Plasma Kallikrein Assay. Type of experiment: biochemical. The note with it: purified Human plasma kallikrein 0.5 nM, substrate Acetyl-K-P-R-AFC, HEPES pH 7.4; read-out: PKal IC50. An outline of the steps:
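Purified human plasma kallikrein at 0.5 nM final with substrate Acetyl-K-P-R-AFC at […], in 50 mM HEPES pH 7.4, 150 mM NaCl, 5 mM CaCl2, 0.1% PEG 8000, at rt or 37° C after enzyme-inhibitor equilibration. IC50 from four-parameter logistic fit of fluorescence rate; Ki via Cheng-Prusoff.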

Experiment [2] has as its target human factor XIa (Homo sapiens, UniProt P03951). Description: Factor XIa Assay. Type of experiment: biochemical. The note with it: human factor XIa 0.04 nM, substrate GPR-AFC, 30 min pre-incubation, 25° C., pH 7.4; read-out: FXIa IC50.

T1 sequence (P03952 391-638 limits assumed): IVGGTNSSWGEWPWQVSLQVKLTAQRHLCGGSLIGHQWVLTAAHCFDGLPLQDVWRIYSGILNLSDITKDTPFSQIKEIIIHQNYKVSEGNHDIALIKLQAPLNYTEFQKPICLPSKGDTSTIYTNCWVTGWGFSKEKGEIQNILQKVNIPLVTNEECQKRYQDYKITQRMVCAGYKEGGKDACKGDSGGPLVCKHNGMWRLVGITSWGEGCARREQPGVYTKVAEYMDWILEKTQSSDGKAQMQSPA
T1 sequence (P03952 20-390 partner limits assumed): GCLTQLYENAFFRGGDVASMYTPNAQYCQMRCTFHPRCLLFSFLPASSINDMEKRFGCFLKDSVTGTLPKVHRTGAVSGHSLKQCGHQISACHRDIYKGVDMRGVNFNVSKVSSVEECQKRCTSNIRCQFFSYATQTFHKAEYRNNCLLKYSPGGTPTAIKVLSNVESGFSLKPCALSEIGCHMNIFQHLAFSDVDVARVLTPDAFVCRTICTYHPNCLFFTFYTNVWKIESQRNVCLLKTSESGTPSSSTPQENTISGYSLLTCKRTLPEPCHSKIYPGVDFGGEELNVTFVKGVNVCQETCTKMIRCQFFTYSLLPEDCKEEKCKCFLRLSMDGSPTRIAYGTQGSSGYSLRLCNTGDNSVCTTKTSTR
human factor XIa, sequence (P03951 388-625 limits assumed): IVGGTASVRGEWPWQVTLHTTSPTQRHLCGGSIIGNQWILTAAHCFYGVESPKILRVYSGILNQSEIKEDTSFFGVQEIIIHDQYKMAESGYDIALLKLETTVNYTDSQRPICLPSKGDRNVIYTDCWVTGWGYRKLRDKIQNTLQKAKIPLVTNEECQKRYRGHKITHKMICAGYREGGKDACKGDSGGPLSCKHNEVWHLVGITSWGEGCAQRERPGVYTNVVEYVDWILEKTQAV
human factor XIa, sequence (P03951 19-387 partner limits assumed): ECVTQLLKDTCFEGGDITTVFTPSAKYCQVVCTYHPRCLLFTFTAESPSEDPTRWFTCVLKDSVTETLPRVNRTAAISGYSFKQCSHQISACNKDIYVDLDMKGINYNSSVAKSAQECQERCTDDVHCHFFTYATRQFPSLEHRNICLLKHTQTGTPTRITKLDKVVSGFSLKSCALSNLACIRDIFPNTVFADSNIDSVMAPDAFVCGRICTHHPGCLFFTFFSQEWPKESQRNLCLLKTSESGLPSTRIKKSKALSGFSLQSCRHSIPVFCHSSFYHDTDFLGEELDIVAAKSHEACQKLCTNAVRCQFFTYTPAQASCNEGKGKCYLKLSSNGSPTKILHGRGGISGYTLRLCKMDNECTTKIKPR

Usually IC50 stands for the point on the concentration scale where inhibition reaches its midpoint. In the case of `Nc1c(C(=O)N2CCC[C@@]3(C2)OC(=O)Nc2ccc(Cl)c(F)c23)cnn1-c1cc(F)ccc1Cl` [Example 78, (R)-1'-(5-Amino-1-(2-chloro-5-fluorophenyl)-1H-pyrazole-4-carbonyl)-6-chloro-5-fluorospiro[benzo[d][1,3]oxazine-4,3'-piperidin]-2(1H)-one], the IC50 in experiment [1] was 35.9 nM; in experiment [2], 813 nM.

For the compound `COc1ccccc1-n1ncc(C(=O)N2CCC[C@@]3(C2)OC(=O)Nc2ccc(Cl)c(F)c23)c1N` [Example 79, (R)-1'-(5-Amino-1-(2-methoxyphenyl)-1H-pyrazole-4-carbonyl)-6-chloro-5-fluorospiro[benzo[d][1,3]oxazine-4,3'-piperidin]-2(1H)-one], the IC50 in experiment [1] was determined as 5.8 nM; in experiment [2] it was 377 nM.

Take `CCc1ccccc1-n1ncc(C(=O)N2CCC[C@@]3(C2)OC(=O)Nc2ccc(Cl)c(F)c23)c1N` [Example 80, (R)-1'-(5-Amino-1-(2-ethylphenyl)-1H-pyrazole-4-carbonyl)-6-chloro-5-fluorospiro[benzo[d][1,3]oxazine-4,3'-piperidin]-2(1H)-one]: the 50% inhibitory concentration (IC50) worked out at 11.6 nM in experiment [1] and 325 nM in experiment [2].

Take `CC(C)c1ccccc1-n1ncc(C(=O)N2CCC[C@@]3(C2)OC(=O)Nc2ccc(Cl)c(F)c23)c1N` [Example 81, (R)-1'-(5-Amino-1-(2-isopropylphenyl)-1H-pyrazole-4-carbonyl)-6-chloro-5-fluorospiro[benzo[d][1,3]oxazine-4,3'-piperidin]-2(1H)-one]: the IC50 in experiment [1] worked out at 5.5 nM; in experiment [2], 353 nM.

In the case of `Nc1c(C(=O)N2CCC[C@@]3(C2)OC(=O)Nc2ccc(Cl)c(F)c23)cnn1-c1ccccc1Cl` [Example 82, (R)-1'-(5-Amino-1-(2-chlorophenyl)-1H-pyrazole-4-carbonyl)-6-chloro-5-fluorospiro[benzo[d][1,3]oxazine-4,3'-piperidin]-2(1H)-one], the IC50 in experiment [1] is 28.4 nM; in experiment [2] it was 739 nM.

As for `Nc1c(C(=O)N2CCC[C@@]3(C2)OC(=O)Nc2ccc(Cl)c(F)c23)cnn1-c1ccccc1Br` [Example 83, (R)-1'-(5-Amino-1-(2-bromophenyl)-1H-pyrazole-4-carbonyl)-6-chloro-5-fluorospiro[benzo[d][1,3]oxazine-4,3'-piperidin]-2(1H)-one], the half-inhibitory concentration (IC50) in experiment [1] stood at 35.5 nM; in experiment [2], 862 nM.

As for `Nc1c(C(=O)N2CCC[C@@]3(C2)OC(=O)Nc2ccc(Cl)c(F)c23)cnn1-c1ccccc1F` [Example 84, (R)-1'-(5-Amino-1-(2-fluorophenyl)-1H-pyrazole-4-carbonyl)-6-chloro-5-fluorospiro[benzo[d][1,3]oxazine-4,3'-piperidin]-2(1H)-one], the IC50 came out at 27.3 nM in experiment [1] and 923 nM in experiment [2].

For the compound `Cc1cccc(-n2ncc(C(=O)N3CCC[C@@]4(C3)OC(=O)Nc3ccc(Cl)c(F)c34)c2N)c1C` [Example 85, (R)-1'-(5-Amino-1-(2,3-dimethylphenyl)-1H-pyrazole-4-carbonyl)-6-chloro-5-fluorospiro[benzo[d][1,3]oxazine-4,3'-piperidin]-2(1H)-one], the IC50 in experiment [1] was 9.2 nM; in experiment [2], 1950 nM.

On to `Cc1ccc(-n2ncc(C(=O)N3CCC[C@@]4(C3)OC(=O)Nc3ccc(Cl)c(F)c34)c2N)c(C)c1` [Example 86, (R)-1'-(5-Amino-1-(2,4-dimethylphenyl)-1H-pyrazole-4-carbonyl)-6-chloro-5-fluorospiro[benzo[d][1,3]oxazine-4,3'-piperidin]-2(1H)-one], for which the figures for the IC50 in experiment [1] and in experiment [2] were 46 nM and 645 nM, respectively.

As to `Cc1ccc(C)c(-n2ncc(C(=O)N3CCC[C@@]4(C3)OC(=O)Nc3ccc(Cl)c(F)c34)c2N)c1` [Example 87, (R)-1'-(5-Amino-1-(2,5-dimethylphenyl)-1H-pyrazole-4-carbonyl)-6-chloro-5-fluorospiro[benzo[d][1,3]oxazine-4,3'-piperidin]-2(1H)-one], the figures for the half-inhibitory concentration (IC50) in experiment [1] and in experiment [2] were 26.4 nM and 1170 nM, respectively.

In the case of `Cc1ccc(F)cc1-n1ncc(C(=O)N2CCC[C@@]3(C2)OC(=O)Nc2ccc(Cl)c(F)c23)c1N` [Example 88, (R)-1'-(5-Amino-1-(5-fluoro-2-methylpheny1)-1H-pyrazole-4-carbonyl)-6-chloro-5-fluorospiro[benzo[d][1,3]oxazine-4,3'-piperidin]-2(1H)-one], the IC50 in experiment [1] was determined as 47 nM; in experiment [2], 1690 nM.

Consider `Nc1c(C(=O)N2CCC[C@@]3(C2)OC(=O)Nc2ccc(Cl)c(F)c23)cnn1-c1ccccc1OC1CC1` [Example 89, (R)-1'-(5-Amino-1-(2-cyclopropoxyphenyl)-1H-pyrazole-4-carbonyl)-6-chloro-5-fluorospiro[benzo[d][1,3]oxazine-4,3'-piperidin]-2(1H)-one], for which the IC50 in experiment [1] amounted to 1.6 nM; in experiment [2], 162 nM.

For `Nc1c(C(=O)N2CCC[C@@]3(C2)OC(=O)Nc2ccc(Cl)c(F)c23)cnn1-c1ccccc1OC(F)F` [Example 90, (R)-1'-(5-Amino-1-(2-(difluoromethoxy)phenyl)-1H-pyrazole-4-carbonyl)-6-chloro-5-fluorospiro[benzo[d][1,3]oxazine-4,3'-piperidin]-2(1H)-one], the IC50 worked out at 6.6 nM in experiment [1] and 215 nM in experiment [2].

On to `Nc1c(C(=O)N2CCC[C@@]3(C2)OC(=O)Nc2ccc(Cl)c(F)c23)cnn1-c1cccc2c1OC(F)(F)O2` [Example 91, (R)-1'-(5-Amino-1-(2,2-difluorobenzo[d][1,3]dioxol-4-y1)-1H-pyrazole-4-carbonyl)-6-chloro-5-fluorospiro[benzo[d][1,3]oxazine-4,3'-piperidin]-2(1H)-one], for which the IC50 in experiment [1] came out at 5.8 nM; in experiment [2], 525 nM.

Turning to `COC(=O)c1ccc(-n2ncc(C(=O)N3CCC[C@@]4(C3)OC(=O)Nc3ccc(Cl)c(F)c34)c2N)c(OC)c1` [Example 92, Methyl (R)-4-(5-amino-4-(6-chloro-5-fluoro-2-oxo-1,2-dihydrospiro[benzo[d][1,3]oxazine-4,3'-piperidine]-l'-carbonyl)-1H-pyrazol-1-yl)-3-methoxybenzoate], the IC50 in experiment [1] worked out at 13.2 nM; in experiment [2], 1710 nM.

`Nc1c(C(=O)N2CCC[C@@]3(C2)OC(=O)Nc2ccc(Cl)c(F)c23)cnn1-c1c(F)cccc1F` [Example 93, (R)-1'-(5-Amino-1-(2,6-difluorophenyl)-1H-pyrazole-4-carbonyl)-6-chloro-5-fluorospiro[benzo[d][1,3]oxazine-4,3'-piperidin]-2(1H)-one]: the IC50 was found to be 10.4 nM in experiment [1] and 418 nM in experiment [2].

Consider `COc1ccc(Cl)cc1-n1ncc(C(=O)N2CCC[C@@]3(C2)OC(=O)Nc2ccc(Cl)c(F)c23)c1N` [Example 94, (R)-1'-(5-Amino-1-(5-chloro-2-methoxyphenyl)-1H-pyrazole-4-carbonyl)-6-chloro-5-fluorospiro[benzo[d][1,3]oxazine-4,3'-piperidin]-2(1H)-one], for which the IC50 in experiment [1] was found to be 11.8 nM; in experiment [2], 1290 nM.

Turning to `Nc1c(C(=O)N2CCC[C@@]3(C2)OC(=O)Nc2ccc(Cl)c(F)c23)cnn1-c1ccccc1C1CC1` [Example 95, (R)-1'-(5-Amino-1-(2-cyclopropylphenyl)-1H-pyrazole-4-carbonyl)-6-chloro-5-fluorospiro[benzo[d][1,3]oxazine-4,3'-piperidin]-2(1H)-one], the IC50 in experiment [1] was determined as 10 nM; in experiment [2], 305 nM.

For the compound `Nc1c(C(=O)N2CCC[C@@]3(C2)OC(=O)Nc2ccc(Cl)c(F)c23)cnn1-c1ccccc1Oc1ccccc1` [Example 96, (R)-1'-(5-Amino-1-(2-phenoxyphenyl)-1H-pyrazole-4-carbonyl)-6-chloro-5-fluorospiro[benzo[d][1,3]oxazine-4,3'-piperidin]-2(1H)-one], the results for the IC50 in experiment [1] and in experiment [2] were 1.1 nM and 1370 nM, respectively.

On to `Nc1c(C(=O)N2CCC[C@@]3(C2)OC(=O)Nc2ccc(Cl)c(F)c23)cnn1-c1ccccc1OC1CCC1` [Example 97, (R)-1'-(5-Amino-1-(2-cyclobutoxyphenyl)-1H-pyrazole-4-carbonyl)-6-chloro-5-fluorospiro[benzo[d][1,3]oxazine-4,3'-piperidin]-2(1H)-one], for which the IC50 in experiment [1] is 8 nM; in experiment [2] it was 1290 nM.

Take `CC1(c2ccccc2-n2ncc(C(=O)N3CCC[C@@]4(C3)OC(=O)Nc3ccc(Cl)c(F)c34)c2N)CC1` [Example 98, (R)-1'-(5-Amino-1-(2-(1-methylcyclopropyl)phenyl)-1H-pyrazole-4-carbonyl)-6-chloro-5-fluorospiro[benzo[d][1,3]oxazine-4,3'-piperidin]-2(1H)-one]: the IC50 in experiment [1] stood at 8.4 nM; in experiment [2], 219 nM.

Regarding `Nc1c(C(=O)N2CCC[C@@]3(C2)OC(=O)Nc2ccc(Cl)c(F)c23)cnn1-c1ccccc1OCC(F)(F)F` [Example 99, (R)-1'-(5-Amino-1-(2-(2,2,2-trifluoroethoxy)phenyl)-1H-pyrazole-4-carbonyl)-6-chloro-5-fluorospiro[benzo[d][1,3]oxazine-4,3'-piperidin]-2(1H)-one], the results for the IC50 in experiment [1] and in experiment [2] were 13.3 nM and 1080 nM, respectively.

On to `COc1cc(F)ccc1-n1ncc(C(=O)N2CCC[C@@]3(C2)OC(=O)Nc2ccc(Cl)c(F)c23)c1N` [Example 100, (R)-1'-(5-Amino-1-(4-fluoro-2-methoxyphenyl)-1H-pyrazole-4-carbonyl)-6-chloro-5-fluorospiro[benzo[d][1,3]oxazine-4,3'-piperidin]-2(1H)-one], for which the IC50 was 9 nM in experiment [1] and 375 nM in experiment [2].
